According to patent US8658646B2, “Pyrrolopyrazine kinase inhibitors” (Hoffmann-LaRoche Inc., priority 2011, dated 2014):

Molecular target: T1, JAK3: Recombinant human kinase domain (Homo sapiens, UniProt P52333)
T1 construct: JAK3: Recombinant human kinase domain from Millipore (Cat #14-629) or prepared; purchased Millipore 14-629
Experiment: Determination of IC50 of Janus Kinase (JAK) inhibition, radioactive end-point 33P-ATP assay, JAK3
Assay type: biochemical
Conditions: ATP 1.5 uM, peptide 50 uM, 20 minutes, read-out: JAK3-INHIB-DR/v1~NO ADDITIVE~Enzyme_Conc = 100

T1 sequence (P52333 822-1111 limits assumed): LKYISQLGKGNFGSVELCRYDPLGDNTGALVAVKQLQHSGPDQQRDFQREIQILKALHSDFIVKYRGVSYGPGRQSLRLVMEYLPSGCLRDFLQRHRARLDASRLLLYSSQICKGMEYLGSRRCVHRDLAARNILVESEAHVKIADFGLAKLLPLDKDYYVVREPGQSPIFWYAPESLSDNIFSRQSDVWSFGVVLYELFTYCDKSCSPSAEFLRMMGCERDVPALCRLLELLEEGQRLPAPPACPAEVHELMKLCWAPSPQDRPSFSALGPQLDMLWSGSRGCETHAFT

| SMILES | IC50 |
| --- | --- |
| Cn1nc(-c2cnc3[nH]cc(C(=O)N[C@@H]4CCCN(S(C)(=O)=O)C4)c3n2)c2ccc(Cl)cc21 [Example I-15, 2-(6-Chloro-1-methyl-1H-indazol-3-yl)-5H-pyrrolo[2,3-b]pyrazine-7-carboxylic acid ((R)-1-methanesulfonyl-piperidin-3-yl)-amide] | 13.6 nM |
| C[C@@H](NC(=O)c1c[nH]c2ncc(-c3nn(CCO)c4cc(Cl)ccc34)nc12)C(=O)N1CC(C#N)C1 [Example I-90, 2-[6-Chloro-1-(2-hydroxy-ethyl)-1H-indazol-3-yl]-5H-pyrrolo[2,3-b]pyrazine-7-carboxylic acid [(R)-2-(3-cyano-azetidin-1-yl)-1-methyl-2-oxo-ethyl]-amide] | 3.83 nM |
| Cn1nc(-c2cnc3[nH]cc(C(=O)N[C@@H]4CCN(CC#N)C4)c3n2)c2ccc(F)cc21 [Example I-214, 2-(6-Fluoro-1-methyl-1H-indazol-3-yl)-5H-pyrrolo[2,3-b]pyrazine-7-carboxylic acid ((R)-1-cyanomethyl-pyrrolidin-3-yl)-amide] | 27.3 nM |
| C[C@@H](NC(=O)c1c[nH]c2ncc(-c3nn(C)c4c3CC(C)(C)CC4)nc12)C(=O)N1CC(C#N)C1 [Example I-13] | 31.1 nM |
| Cn1nc(-c2cnc3[nH]cc(C(=O)NC4CCCC(=O)C4)c3n2)c2ccc(Cl)cc21 (centres unmarked) [Example I-147, 2-(6-Chloro-1-methyl-1H-indazol-3-yl)-5H-pyrrolo[2,3-b]pyrazine-7-carboxylic acid (3-oxo-cyclohexyl)-amide] | 38.4 nM |
| CCC[C@@H](NC(=O)c1c[nH]c2ncc(-c3nn(C)c4cc(F)ccc34)nc12)C(=O)N1CC(F)C1 [Example I-59, 2-(6-Fluoro-1-methyl-1H-indazol-3-yl)-5H-pyrrolo[2,3-b]pyrazine-7-carboxylic acid [(R)-1-(3-fluoro-azetidine-1-carbonyl)-butyl]-amide] | 3.19 nM |
| C[C@H](Cn1cccn1)NC(=O)c1c[nH]c2ncc(-c3nn(C)c4cc(F)ccc34)nc12 [Example I-133, 2-(6-Fluoro-1-methyl-1H-indazol-3-yl)-5H-pyrrolo[2,3-b]pyrazine-7-carboxylic acid ((R)-1-methyl-2-pyrazol-1-yl-ethyl)-amide] | 56.7 nM |
| CC(C)n1nc(-c2cnc3[nH]cc(C(=O)N[C@H](C)C(=O)N4CC(C#N)C4)c3n2)c2ccc(Cl)cc21 [Example I-91, 2-(6-Chloro-1-isopropyl-1H-indazol-3-yl)-5H-pyrrolo[2,3-b]pyrazine-7-carboxylic acid [(R)-2-(3-cyano-azetidin-1-yl)-1-methyl-2-oxo-ethyl)-amide] | 3.13 nM |
| CC(C)NC(=O)c1c[nH]c2ncc(-c3nn(CC4CC4)c4cc(Cl)ccc34)nc12 [Example I-309, 2-(6-Chloro-1-cyclopropylmethyl-1H-indazol-3-yl)-5H-pyrrolo[2,3-b]pyrazine-7-carboxylic acid isopropylamide] | 28.6 nM |
| CC(C)CC(C)NC(=O)c1c[nH]c2ncc(-c3nn(C)c4cc(F)ccc34)nc12 (centres unmarked) [Example I-187, 2-(6-Fluoro-1-methyl-1H-indazol-3-yl)-5H-pyrrolo[2,3-b]pyrazine-7-carboxylic acid (1,3-dimethyl-butyl)-amide] | 20.4 nM |
| C[C@@H](NC(=O)c1c[nH]c2ncc(-c3nn(C)c4cc(Cl)ccc34)nc12)C(=O)N1CC[C@@H](F)C1 [Example I-119, 2-(6-Chloro-1-methyl-1H-indazol-3-yl)-5H-pyrrolo[2,3-b]pyrazine-7-carboxylic acid [(R)-2-((R)-3-fluoro-pyrrolidin-1-yl)-methyl-2-oxo-ethyl]-amide] | 3.64 nM |
| CCOC[C@H](C)NC(=O)c1c[nH]c2ncc(-c3nn(C)c4cc(Cl)ccc34)nc12 [Example I-171, 2-(6-Chloro-1-methyl-1H-indazol-3-yl)-5H-pyrrolo[2,3-b]pyrazine-7-carboxylic acid ((S)-2-ethoxy-1-methyl-ethyl)-amide] | 5.78 nM |
| C[C@H](CS(C)(=O)=O)NC(=O)c1c[nH]c2ncc(-c3nn(C)c4cc(Cl)ccc34)nc12 [Example I-105, 2-(6-Chloro-1-methyl-1H-indazol-3-yl)-5H-pyrrolo[2,3-b]pyrazine-7-carboxylic acid ((R)-2-methanesulfonyl-1-methyl-ethyl)-amide] | 54.4 nM |
| C[C@@H](NC(=O)c1c[nH]c2ncc(-c3nn(C)c4cc(Cl)ccc34)nc12)C(=O)N1CC(F)(F)C1 [Example I-14, 2-(6-Chloro-1-methyl-1H-indazol-3-yl)-5H-pyrrolo[2,3-b]pyrazine-7-carboxylic acid [(R)-2-(3,3-difluoro-azetidin-1-yl)-1-methyl-2-oxo-ethyl]-amide] | 27.5 nM |
| C[C@@H](NC(=O)c1c[nH]c2ncc(-c3nn(C)c4cc(F)ccc34)nc12)C(F)(F)Cc1ccccc1 [Example I-61, 2-(6-Fluoro-1-methyl-1H-indazol-3-yl)-5H-pyrrolo[2,3-b]pyrazine-7-carboxylic acid ((R)-2,2-difluoro-1-methyl-3-phenyl-propyl)-amide] | 16.8 nM |
| C[C@@H](NC(=O)c1c[nH]c2ncc(-c3nn(C)c4cc(F)ccc34)nc12)c1cc(C(F)(F)F)ccn1 [Example I-79, 2-(6-Fluoro-1-methyl-1H-indazol-3-yl)-5H-pyrrolo[2,3-b]pyrazine-7-carboxylic acid [(R)-1-(4-trifluoromethyl-pyridin-2-yl)-ethyl]-amide] | 15.1 nM |
| C[C@H](CNC(=O)c1c[nH]c2ncc(-c3nn(C)c4cc(F)ccc34)nc12)C(N)=O [Example I-137, 2-(6-Fluoro-1-methyl-1H-indazol-3-yl)-5H-pyrrolo[2,3-b]pyrazine-7-carboxylic acid ((R)-2-carbamoyl-propyl)-amide] | 132 nM |
| C[C@@H](NC(=O)c1c[nH]c2ncc(-n3cnc4cc(Cl)ccc43)nc12)C(=O)N1CC(C#N)C1 [Example I-225, 2-(5-Chloro-benzoimidazol-1-yl)-5H-pyrrolo[2,3-b]pyrazine-7-carboxylic acid [(R)-2-(3-cyano-azetidin-1-yl)-1-methyl-2-oxo-ethyl]-amide] | 144 nM |

Now those with a lower IC50, led by results:

| IC50 | SMILES |
| --- | --- |
| 2.83 nM | Cn1nc(-c2cnc3[nH]cc(C(=O)N[C@@H](C(=O)N4CCC(C#N)CC4)C(C)(C)C)c3n2)c2cc(Cl)ccc21 [Example I-8, 2-(5-Chloro-1-methyl-1H-indazol-3-yl)-5H-pyrrolo[2,3-b]pyrazine-7-carboxylic acid [(R)-1-(4-cyano-piperidine-1-carbonyl)-2,2-dimethyl-propyl]-amide] |
| 2.73 nM | C[C@@H](NC(=O)c1c[nH]c2ncc(-c3nn(C)c4cc(Cl)ccc34)nc12)C(=O)N1CC(F)C1 [Example I-120, 2-(6-Chloro-1-methyl-1H-indazol-3-yl)-5H-pyrrolo[2,3-b]pyrazine-7-carboxylic acid [(R)-2-(3-fluoro-azetidin-1-yl)-1-methyl-2-oxo-ethyl)-amide] |
| 2.31 nM | C[C@@H](NC(=O)c1c[nH]c2ncc(-c3ncn4cc(F)ccc34)nc12)c1ncco1 [Example I-58, 2-(6-Fluoro-imidazo[1,5-a]pyridin-1-yl)-5H-pyrrolo[2,3-b]pyrazine-7-carboxylic acid ((R)-1-oxazol-2-yl-ethyl)-amide] |
| 2.17 nM | N#CC1CCN(C(=O)[C@H](NC(=O)c2c[nH]c3ncc(-n4ncc5cc(Cl)ccc54)nc23)C2CC2)CC1 [Example I-66, 2-(5-Chloro-indazol-1-yl)-5H-pyrrolo[2,3-b]pyrazine-7-carboxylic acid [(R)-2-(4-cyano-piperidin-1-yl)-1-cyclopropyl-2-oxo-ethyl]-amide] |
| 2.01 nM | C[C@@H](NC(=O)c1c[nH]c2ncc(-c3nn(C)c4cc(Cl)ccc34)nc12)C(=O)N1CC[C@H](F)C1 [Example I-118, 2-(6-Chloro-1-methyl-1H-indazol-3-yl)-5H-pyrrolo[2,3-b]pyrazine-7-carboxylic acid [(R)-2-((S)-3-fluoro-pyrrolidin-1-yl)-1-methyl-2-oxo-ethyl]-amide] |
| 1.83 nM | COC[C@H](C)NC(=O)c1c[nH]c2ncc(-c3nn(CCN(C)C)c4cc(F)ccc34)nc12 [Example I-239, 2-[1-(2-Dimethylamino-ethyl)-6-fluoro-1H-indazol-3-yl]-5H-pyrrolo[2,3-b]pyrazine-7-carboxylic acid ((S)-2-methoxy-1-methyl-ethyl)-amide] |
| 1.51 nM | Cn1nc(-c2cnc3[nH]cc(C(=O)N[C@@H](C(=O)N4CCC(C#N)CC4)C4CC4)c3n2)c2c1CCCC2 [Example I-10, 2-(1-Methyl-4,5,6,7-tetrahydro-1H-indazol-3-yl)-5H-pyrrolo[2,3-b]pyrazine-7-carboxylic acid [(R)-2-(4-cyano-piperidin-1-yl)-1-cyclopropyl-2-oxo-ethyl]-amide] |
| 1.29 nM | C[C@@H](NC(=O)c1c[nH]c2ncc(-c3nn(Cc4ccccn4)c4cc(Cl)ccc34)nc12)C(=O)N1CC(C#N)C1 [Example I-233, 2-(6-Chloro-1-pyridin-2-ylmethyl-1H-indazol-3-yl)-5H-pyrrolo[2,3-b]pyrazine-7-carboxylic acid [(R)-2-(3-cyano-azetidin-1-yl)-1-methyl-2-oxo-ethyl]-amide] |
| 1.09 nM | Cc1ccc2c(-c3cnc4[nH]cc(C(=O)N[C@H](C)C(=O)N5CC(C#N)C5)c4n3)nn(C)c2n1 [Example I-89, 2-(1,6-Dimethyl-1H-pyrazolo[3,4-b]pyridin-3-yl)-5H-pyrrolo[2,3-b]pyrazine-7-carboxylic acid [(R)-2-(3-cyano-azetidin-1-yl)-1-methyl-2-oxo-ethyl]-amide] |
| 0.805 nM | COC[C@H](C)NC(=O)c1c[nH]c2ncc(-c3nn(CCN4CCOCC4)c4cc(Cl)ccc34)nc12 [Example I-236, 2-[6-Chloro-1-(2-morpholin-4-yl-ethyl)-1H-indazol-3-yl]-5H-pyrrolo[2,3-b]pyrazine-7-carboxylic acid ((S)-2-methoxy-1-methyl-ethyl)-amide] |
| 0.575 nM | Cn1nc(-c2cnc3[nH]cc(C(=O)N[C@@H](C(=O)N4CCC(C#N)CC4)C4CC4)c3n2)c2ccc(Cl)cc21 [Example I-2, 2-(6-Chloro-1-methyl-1H-indazol-3-yl)-5H-pyrrolo[2,3-b]pyrazine-7-carboxylic acid [(R)-2-(4-cyano-piperidin-1-yl)-1-cyclopropyl-2-oxo-ethyl]-amide] |
